B1: Decorin: small leucine-rich proteoglycan, TGF-β1/2 antagonist; recombinant form tested in rat SCI models (protein, UniProt P07585 31-359, looked up)
Decorin: DEASGIGPEVPDDRDFEPSLGPVCPFRCQCHLRVVQCSDLGLDKVPKDLPPDTTLLDLQNNKITEIKDGDFKNLKNLHALILVNNKISKVSPGAFTPLVKLERLYLSKNQLKELPEKMPKTLQELRAHENEITKVRKVTFNGLNQMIVIELGTNPLKSSGIENGAFQGMKKLSYIRIADTNITSIPQGLPPSLTELHLDGNKISRVDAASLKGLNNLAKLGLSFNSISAVDNGSLANTPHLRELHLDNNKLTRVPGGLAEHKYIQVVYLHNNNISVVGSSDFCPPGHNTKKASYSGVSLFSNPVQYWEIQPSTFRCVYVRSAIQLGNYK

Experiments:
[1] = system: participants with neurologically complete thoracic spinal cord injury (T3-T11); assay: Phase 1 thoracic SCI trial (NCT01217008): safety, adverse events; assay type: in vivo, human; conditions: N=5
Description: Study design. The trial design was an open-label, multicenter study. A single dose of 2×10^6 LCTOPC1 was injected within 7 to 14 days following SCI. Subjects who received LCTOPC1 also received tacrolimus to prevent rejection.
This study was a Phase 1, multi-center, non-randomized, a single group assignment interventional clinical trial. The Participants were enrolled from one of seven centers in the United States. The study was registered (NCT01217008) and the primary endpoint was safety, as measured by the frequency and severity of adverse events related to LCTOPC1, the injection procedure used to administer LCTOPC1, and/or the concomitant immunosuppression administered. The secondary endpoint was neurological function as measured by sensory scores and lower extremity motor scores on ISNCSCI examinations.
Safety Assessments. The primary endpoint of the Phase 1 clinical trial was safety, as measured by the frequency and severity of adverse events (AEs) within 1 year of LCTOPC1 injection that were related to LCTOPC1, the injection procedure used to administer LCTOPC1, and/or the concomitant immunosuppression administered. […]
Definition of an Adverse Event. […] The severity of AEs and the characterization of Serious Adverse Events (SAEs) were evaluated using standard FDA criteria.
The relationship of AEs to the investigational drug was determined by each site investigator and was categorized as “Possibly Related” based on the following criteria: 1) the AE was reasonably related in time with LCTOPC1 exposure, the injection procedure used to administer LCTOPC1, and/or the concomitant immunosuppression administered AND 2) the AE could be explained either by exposure to the investigational product or equally well by factors or causes other than exposure to the investigational product. Adverse events were monitored by the External Medical Monitor, Sponsor Medical Monitor, and DSMB.

[2] = system: subjects with subacute cervical spinal cord injury (C4-C7, AIS A/B); assay: Phase 1/2a cervical SCI dose escalation study: safety, adverse events, MRI; assay type: in vivo, human
Description: Study Design. The trial design was an open-label, staggered dose escalation, cross-sequential, multicenter study. Three sequential, escalating doses of AST-OPC1 were administered at a single tie point between 21 and 42 days post-injury to subjects with subacute cervical spinal cord injuries (SCI). Subjects received AST-OPC1 via direct intra-spinal injection using a Syringe Positioning Device (SPD). To prevent rejection of engraftment, low dose tacrolimus was initiated 6 to 12 hours after and intra-spinal injection, and continued for 46 days, tapered from Day 46 to Day 60, and was discontinued at Day 60. Subjects were followed for 1 year following administration of AST-OPC1 under this protocol. Male or female subjects from 18 to 69 years of age at time of consent with sensorimotor complete, traumatic SCI (American Spinal Injury Association Impairment Scale A) or sensorimotor incomplete, traumatic SCI (American Spinal Injury Association Impairment Scale B). […] There was a single spinal cord lesion on a post-stabilization magnetic resonance imaging (MRI) scan, with sufficient visualization of the spinal cord injury epicenter and lesion margins to enable post-injection safety monitoring. Subjects were able to participate in an elective surgical procedure to inject AST-OPC1 21 to 42 days following SCI. Subjects received a single dose of either 2×10^6, 1×10^7, or 2×10^7 AST-OPC1 viable cells by injection, administered 21 to 42 days following SCI. The product was delivered intraoperatively into the spinal cord using the Syringe Positioning Device. The AST-OPC1 batch numbers used in this study were M08D1A, M22D1A and M25D1A. Single administration of AST-OPC1 was provided with 1 year of follow-up. Schematics of the planned study timeline, and subject screening and treatment, are provided in FIG. 6 and FIG. 7, respectively. A schematic diagram of the final open-label, staggered dose-escalation, multicenter Phase 1/2a clinical trial is shown in FIG. 8. An overview of study visits for the one-year protocol is presented in the study schema in FIG. 9.
A neurological examination was completed using the standardized International Standards for Neurological Classification of Spinal Cord Injury (ISNCSCI) examination for motor and sensory testing and for designation of the American Spinal Injury Association impairment scale. The ISNCSCI is used for efficacy with respect to improved motor function in the extremities, improved sensory function, and/or a descending neurological level. Safety assessments included physical examination, vital signs, ISNCSCI neurological examination, pain questionnaire (International Spinal Cord Injury Pain Basic Data Set, ISCIPBDS), electrocardiogram (ECG), Magnetic Resonance Imaging (MRI), laboratory tests, concomitant medications, and adverse events (AEs). Results for the ISNCSCI were listed for each subject by scheduled visit and analyzed by change in motor level and motor scores as well as other exploratory assessments of arm/hand function, self-care ability and overall volitional performance. Adverse events were tabulated by system organ class and by preferred term within system organ class according to the Medical Dictionary for Regulatory Activities (MedDRA®) Version 18.0. Statistical analysis of the safety data was performed using descriptive statistical methods including AEs incidence, severity and relatedness to AST-OPC1, to the injection procedure for product administration, and concomitant immunosuppression with tacrolimus. The number of laboratory assessments (hematology, clinical chemistry) that were below, within, or above the normal laboratory reference range were summarized for each analyte at scheduled study visits. Vital signs were summarized by calculating the mean, standard deviation, median, and range of values at each of the protocol-specified time points.
Study Endpoints. […]

[3] = system: dorsal funicular lesion (DFL) SCI model; conditions: cited from earlier work

Molecule	Grade 1 AEs possibly related specifically to tacrolimus (number) [1]	Grade 2 AEs possibly related specifically to tacrolimus (number) [1]	AEs possibly related specifically to the immunosuppression (number of the 25) ([1]; tacrolimus to Day 60, trough 3 to 7 ng/mL)	Hypomagnesemia: Days from Injection ([2]; both, human, in vivo) [days]	Nausea: Days from Injection ([2]; both, human, in vivo) [days]	Decreased Appetite: Severity ([2]; both, human, in vivo, 365 days)	Hypomagnesemia: Severity ([2]; both, human, in vivo, 365 days)	Nausea: Severity ([2]; both, human, in vivo, 365 days)	Bacterial infection: Days from Injection ([2]; causality Tacrolimus) [days]	Bacterial infection: Outcome ([2]; causality Tacrolimus)	Bacterial infection: Severity ([2]; causality Tacrolimus)	Decreased Appetite: Outcome ([2]; in vivo)	Hypomagnesemia: Outcome ([2]; in vivo)	Nausea: Outcome ([2]; in vivo)	Acute scarring and wound cavitation ([3]; DFL SCI model, adult rats)	Axonal regrowth ([3]; acute and chronic experiments, vs PBS-treated DFL)	Inflammation, glial scar formation and CSPG expression ([3]; after acute spinal cord injury)
C=CC[C@@H]1/C=C(\C)C[C@H](C)C[C@H](OC)[C@H]2O[C@@](O)(C(=O)C(=O)N3CCCC[C@H]3C(=O)O[C@H](/C(C)=C/[C@@H]3CC[C@@H](O)[C@H](OC)C3)[C@H](C)[C@@H](O)CC1=O)[C@H](C)C[C@@H]2OC [Tacrolimus, tacrolimus]	Seven	nine	Sixteen	5 to 43	7	Grade 2	Grade 1-2	Grade 2	30	Resolved	Grade 3	Resolved	Resolved	Resolved	–	–	–
B1	–	–	–	–	–	–	–	–	–	–	–	–	–	–	suppressed acute scarring (fibrogenesis) and wound cavitation	promoted axonal regrowth	inhibit inflammation, glial scar formation and CSPG expression

From patent publication US20240082311A1, “COMPOSITIONS AND METHODS FOR TREATING SPINAL CORD INJURIES” (ASTERIAS BIOTHERAPEUTICS, INC., priority 2021, published 2024)
